# Results: patent publication US11813262B2, “Compositions and methods to increase muscular strength” (priority 2017, dated 2023)
# Assays:
# [1] = tested on: 3D engineered skeletal muscle tissue from C2Cl2 myoblasts; assay: Contractility of 3D engineered optogenetic skeletal muscle tissue (displacement of compliant cantilever); assay type: cell-based, mouse; details: for effect on muscle contraction of 3D muscle: other actin disrupters
# Source text: An in vitro optogenetic skeletal muscle micro-tissue as a model system (e.g., engineered skeletal muscle) such as the one shown in FIG. 1A-1E was used. Briefly, a sacrificial molding technique was used to form the muscle tissue on the cantilevers. A steel rod was used to mold a cylindrical hole in solidified gelatin. The steel rod was then removed and myoblasts in an extracellular matrix material was inserted in its place. The myoblasts were then differentiated in place to form a differentiated muscle tissue. With this system, a range of actin inhibitors were tested (e.g., Cytochalasin D (Zygosporin A), Latrunculin A, SMIFH2, CK666 and Jasplakinode) including ones that bind to the barbed end of F-actin, ones that sequester G-actin monomers and inhibitors of formins, roughly a 100% increase in muscle strength was observed (FIGS. 2A-2B and FIGS. 3A-3B) and a 300% increase in external work performed was observed, within 2 hours of F-actin disruption. Additionally, disruption of the dynamic F-actin cytoskeleton using small molecule actin dynamics inhibitors led to a persistent 2-fold improvement in force (e.g., muscle performance or work) compared to exercising (FIG. 4A-4E). Actin disruption improved mouse muscle explant force, a model system that is very close to human muscle (FIG. 5A-5C).
# (§1) Fabrication of a 3D engineered skeletal muscle tissue by differentiating C2Cl2 myoblasts mixed in a fibrin/matrigel extracellular matrix cast in to a muscle-like cylindrical shape using a sacrificial molding technique. The muscle tissue is anchored to a stiff cantilever and a more compliant cantilever. Optogenetic stimulation of the muscle tissue lead to muscle contraction which was quantified through measurable displacements of the compliant cantilever. ZygoA treatment of the 3D muscle tissues lead to a significant improvement in contraction relative to DMSO treated controls, reaching ˜2-fold increase in 2 hours.
# [2] = tested on: F-actin; assay: Live confocal time-lapse microscopy of Sir-Actin stained myotubes; assay type: cell-based; details: 0.3 uM
# Experimental: However, some of the background non-sarcomeric F-actin was depolymerized as also quantified in (FIG. 10D). Myotubes with an immature sarcomeric structure were depolymerized ˜5 hours after ZygoA treatment (FIG. 10C). Poorly differentiated, myotubes without visible sarcomeric structures had rupturing F-actin cables and significant actin upon actin disruption with ZygoA. […] Sir-Actin intensity before and 12 hours after treatment along sarcomeric F-actin in mature myotubes (FIG. 10D-10E).
# [3] = tested on: differentiated C2Cl2 myotubes; assay: Active contraction of differentiated optogenetic C2Cl2 myotubes (Index of Movement); assay type: cell-based, mouse
# Source text: as §1
# [4] = tested on: F-actin; assay: Fluorescence recovery after photobleaching of GFP-tagged G-actin in C2Cl2 myotubes; assay type: cell-based, mouse
# Source text: The fluorescence recovery in differentiated myotubes was affected by 3 different events: diffusion, dynamic F-actin turnover and stable F-actin turnover. DMSO treated tissues recovered faster than ZygoA treated tissues. […] These myotubes were excluded from the computation. Fluorescence recovery at different timescales (seconds, minutes, tens of minutes) reflected different molecular processes (diffusion of monomer, dynamic F-actin turnover, stable F-actin turnover). […] Changes in dynamic and stable F-actin fractions were statistically significant (FIG. 11D-11E).
# [5] = tested on: mouse hindlimb extensor digitorum longus (EDL) muscle explant; assay: Contractility of mouse hindlimb EDL muscle explant on cantilevers under electrical stimulation
# Source text: The hindlimb extensor digitorum longus (EDL) muscle of a euthanized 2-3 month old male mouse was dissected. The EDL muscle was anchored between two kapton cantilevers using a cyanoacrylate glue. One of the cantilevers was movable whose position could be adjusted to change the resting tension of the muscle. The cantilever was moved to the point where maximal force was produced and was held at this point for the rest of the experiment. (FIG. 7A-7B).
# The two colored envelopes around the curves representing the mean are the 68% and 95% confidence interval envelopes (FIG. 7D). ZygoA treated tissues that responded the best, with an average of ˜2× transient increase in contraction after treatment, followed by decline (FIG. 7E). […] Modeling the decline associated with rigor mortis as an exponential decay estimated the “true” strength change after treatment. The muscle strength was compared of tissue after treatment extrapolated to time t=0 and represent this as a strength ratio relative to the actual strength at t=0. ZygoA treated tissues show a ˜2.5-fold increase in median strength ratio relative to DMSO treated controls.
# [6] = tested on: F-actin; assay: Phalloidin stain of F-actin in mouse EDL muscle explants; details: 3 uM, 2 hours of treatment, vs DMSO
# [7] = poorly differentiated myotubes without visible sarcomeric structures
smiles,measurement,setting,value
C/C1=C/C(=O)O[C@@H]2C[C@@H](CC[C@H](C)/C=C\C=C\CC1)O[C@@](O)([C@@H]1CSC(=O)N1)C2 [Latrunculin A],effect on muscle contraction of 3D muscle,[1],improved muscle contraction
"O=C1NC(=S)N(c2cccc(Br)c2)C(=O)C1=Cc1ccco1 [SMIFH2, 1-(3-Bromophenyl)-5-(2-furylmethylene)-2-thioxo-hexahydropyrimidine-4,6-dione]",effect on muscle contraction of 3D muscle,[1],improved muscle contraction
"C=C1[C@@H](C)[C@H]2[C@H](Cc3ccccc3)NC(=O)[C@]23[C@H](OC(C)=O)/C=C/[C@@](C)(O)C(=O)[C@@H](C)C/C=C/[C@H]3[C@@H]1O [ZygoA, Zygosporin A]",time to depolymerization of myotubes with immature sarcomeric structure,[2],~5 h
same,sarcomeric F-actin structure in mature myotubes after treatment,"[2]; 12 hours after treatment, mature sarcomeric structure",still displayed the periodic sarcomeric structure
same,average F-actin filament length,[2]; [7],decrease in the average F-actin filament length
same,number of F-actin filaments,[2]; [7],increase in number of F-actin filaments
same,"active contraction (Index of Movement, active contractile displacement)",[3],significant improvement in active contraction
same,longer term effect on active contraction,"[1]; 0.3 μM, long term (1 day)",no significant effect
same,muscle contraction after pulsed treatment compared to DMSO treated controls,"[1]; 3 uM for 2 hours followed by washout, days after washout",sustained improvement in muscle contraction
same,short term increase in force (active contraction),"[1]; 3 μM, 2 hours of exposure",2.6 ×
same,decrease in contraction compared to the peak achieved 2 hours after exposure,"[1]; 3 μM, longer term (1 day)",~50%
same,increase in contraction relative to DMSO treated controls,"[1]; 3D muscle tissues, in 2 hours",~2 fold
same,effect of washout on contraction,[1]; washout of high dose 3 uM,recovery of the force to the level of the peak
same,effect of washout on contraction,[1]; washout of low dose 0.3 uM,slight decrease in contraction (not significant)
same,actin turnover time,"[4]; FRAP, vs DMSO",slowed the actin turnover time in a dose-dependent manner
same,amount of stable F-actin,[4]; higher dose 3 uM,reduces the amount of stable F-actin
same,amount of dynamic F-actin,[4]; low dose 0.3 uM,reduced the amount of dynamic F-actin
same,transient increase in contraction after treatment,"[5]; ZygoA treated tissues that responded the best, average, treatment at t=60 mins",~2 ×
same,increase in median strength ratio relative to DMSO treated controls,[5]; strength after treatment extrapolated to t=0 (exponential decay model of rigor mortis) relative to actual strength at t=0,~2.5 fold
same,contractility changes of treated tissues vs DMSO,"[5]; treatment at t=60 mins, before rigor mortis decline",transient improvement
same,F-actin disruption in muscle explants (phalloidin stain),[6],disrupted F-actin
C/C1=C\[C@H](C)C[C@H](C)OC(=O)C[C@H](c2ccc(O)cc2)NC(=O)[C@@H](Cc2c(Br)[nH]c3ccccc23)N(C)C(=O)[C@H](C)NC(=O)[C@@H](C)C1 [jasplakinolide],active contractility after F-actin stabilization,[1],gradual decrease in active contractility
